The values that follow come from PubChem BioAssay AID1508612.

The structures appear in SMILES notation.

The nature of this data set: passive permeability, PAMPA, ADME assay (AID 1508612). The conditions noted are these: pH 7.4, 30.0 min, 50.0 µM. Background: PAMPA measures passive passage across an artificial lipid membrane.
Take `Brc1ccc(-c2csc(N3CCC(c4nn[nH]n4)CC3)n2)cc1`: the Papp worked out at 141 ×10⁻⁶ cm/s. The result for `COC(=N)c1nc2ccc3ncnc(Nc4ccc(F)cc4Br)c3c2s1` reads 28 ×10⁻⁶ cm/s; that for `Brc1ccc(-c2csc(N3CCNCC3)n2)cc1`, > 1000 ×10⁻⁶ cm/s; that for `O=C(Nc1nc(-c2ccccc2)cs1)c1ccncc1NS(=O)(=O)c1cccc(Cl)c1`, 754 ×10⁻⁶ cm/s. The result for `Cc1cc(N=Nc2ccc(S(=O)(=O)Nc3ccccn3)cc2)c(N)cc1O` reads 29.4 ×10⁻⁶ cm/s; that for `CSc1ccc(/C=C/c2nc3ccccc3n2S(=O)(=O)c2cccc(Cl)c2)cc1`, 911 ×10⁻⁶ cm/s. As for `CCc1ccc(NC(=O)CSC2=Nc3ccccc3C3=NC(CC(=O)NCc4ccc5c(c4)OCO5)C(=O)N23)cc1` (stereo unspecified), the apparent permeability (Papp) is < 1 ×10⁻⁶ cm/s.

As for `OCc1ccc(-c2cc3c(ccn3Cc3cccnc3)c(C3=CCOCC3)n2)cc1`, the Papp worked out at 478 ×10⁻⁶ cm/s.

`COc1ccc(CN(C2CCCCC2C)S(=O)(=O)c2ccc(S(=O)(=O)N(C)C)cc2)cc1OC` (stereo unspecified) gave an apparent permeability (Papp) of 18.8 ×10⁻⁶ cm/s. The result for `O=C(c1cc2ccccc2[nH]1)N1CCc2c(n(Cc3cccnc3)n(CCc3ccccc3)c2=O)C1` reads 381 ×10⁻⁶ cm/s; that for `Cc1c(-c2nsc(NC(=O)c3cccc(Cl)c3)n2)nnn1-c1ccccc1C(F)(F)F`, 706 ×10⁻⁶ cm/s. The result for `CNc1cc(-c2nc(Nc3ccc(F)c(F)c3)c3ccccc3n2)ccn1` reads 257 ×10⁻⁶ cm/s. `CC(=O)c1cccc(-c2csc(N3CCC(C(N)=O)CC3)n2)c1`: the Papp amounted to 328 ×10⁻⁶ cm/s. This Papp and that of the compound before are within 1.5-fold of each other. For `CCCCCCCc1c(C)nc(N2CCOCC2)[nH]c1=O`, the Papp was > 1000 ×10⁻⁶ cm/s.

`CCN1C(=O)c2ccccc2S(=O)c2ccc(C(=O)NCc3ccccc3)cc21` (stereo unspecified): the apparent permeability (Papp) came to 775 ×10⁻⁶ cm/s. `C#Cc1ccc(NC(=O)c2cnn3c(C)cc(C)nc23)cc1`: the apparent permeability coefficient (Papp) turned out to be 14 ×10⁻⁶ cm/s. To `Cc1ccc(Nc2nc(C)c(NC(=O)c3ccc(C)cc3)c(Nc3ccc(C)cc3)n2)cc1` belongs 291 ×10⁻⁶ cm/s; to `COc1ccc(-c2ccc3ncc(Nc4ccncc4)n3n2)cc1OC`, 763 ×10⁻⁶ cm/s.

For `COc1ccc(CCNC(=O)c2cc3c(=O)n4ccccc4nc3n(CCCN3CCOCC3)c2=N)cc1`, the Papp was 394 ×10⁻⁶ cm/s. This Papp lies about 1.9-fold lower than the previous one.

Compound `C#CCNC(=O)c1nc(-c2ccc(Cl)nc2)c2ccccn12` displayed an apparent permeability coefficient (Papp) of 802 ×10⁻⁶ cm/s.

On to `COc1ccc(-c2ccc3nc(-c4cc(C)cc(C)c4)oc3c2)c(OC)c1OC`, for which the Papp was < 1 ×10⁻⁶ cm/s.

Take `c1ccc2c(NC3CCCCC3)nc(-c3ccncc3)nc2c1`: the apparent permeability (Papp) is > 1000 ×10⁻⁶ cm/s.

On to `CCOC(=O)[C@H]1O[C@H]1C(=O)N[C@@H](CC(C)C)C(=O)NCCC(C)C`, for which the Papp was found to be 89 ×10⁻⁶ cm/s. As to `Fc1ccc(Nc2nc(-c3ccncc3)ncc2-c2ccccc2)cc1F`, the Papp was < 1 ×10⁻⁶ cm/s. With `CC[C@@H]1C(=O)N(C)c2cnc(Nc3ccc(C(=O)NC4CCN(C)CC4)cc3OC)nc2N1C1CCCC1`, the apparent permeability (Papp) worked out at 561 ×10⁻⁶ cm/s. The result for `COc1ccc(C2Nc3ccccc3C(=O)N2Cc2cccnc2)cc1COc1c(C)cc(NC(C)=O)cc1C` (stereo unspecified) reads > 1000 ×10⁻⁶ cm/s; that for `COc1cc(C(=O)N2CCN(c3cc(Cl)ccc3Cl)CC2)cc(OC)c1OC`, > 1000 ×10⁻⁶ cm/s; that for `Cc1sc2c(c1C)C(c1ccc(Cl)cc1)=N[C@@H](CC(=O)Nc1ccc(OCCOCCOCCOCCNc3cccc4c3C(=O)N(C3CCC(=O)NC3=O)C4=O)cc1)c1nnc(C)n1-2` (stereo partly specified), 4.9 ×10⁻⁶ cm/s. To `NC(=O)N1CCCC(C(=O)N2CCCN(c3ccc(F)cc3)CC2)C1` (stereo unspecified) belongs 111 ×10⁻⁶ cm/s; to `NC(=O)C1CCN(c2nc(-c3ccccc3Br)cs2)CC1`, 462 ×10⁻⁶ cm/s; to `C[C@@H]1CN(CC(=O)N2CC(C)(C)c3ncc(Cc4ccc(F)cc4)cc32)[C@@H](CN2CCOC[C@H]2C)CN1`, > 1000 ×10⁻⁶ cm/s.

Compound `Clc1cccc(Nc2nc(-c3ccncc3)nc3ccccc23)c1` came in with an apparent permeability coefficient (Papp) of 250 ×10⁻⁶ cm/s. The compound `O=C(C1CC(=O)N(c2n[nH]c3ccccc23)C1)N1CCC(c2noc3cc(F)ccc23)CC1` (stereo unspecified) registered a Papp of 726 ×10⁻⁶ cm/s.

The compound `Cc1ccc(-c2nn(C(C)(C)C)c3ncnc(N)c23)cc1` registered an apparent permeability (Papp) of 825 ×10⁻⁶ cm/s. Regarding `O=C(Nc1ccc(F)cc1F)c1cc(-c2ccc[nH]2)n[nH]1`, the apparent permeability (Papp) was determined as 103 ×10⁻⁶ cm/s. To `Fc1cc(Nc2nc(-c3ccncc3)nc3ccccc23)ccc1OCC(F)(F)F` belongs 58.8 ×10⁻⁶ cm/s; to `O=C(Nc1ccc(S(=O)(=O)Nc2nccs2)cc1)c1cccc2ccccc12`, 11.9 ×10⁻⁶ cm/s; to `CC(=O)Nc1cccc(-c2nc(-c3c(C)noc3C)cc3c2cc(-c2ccccc2)n3C)c1`, 455 ×10⁻⁶ cm/s. To `O=c1ncn2nc(Sc3ccc(F)cc3F)ccc2c1-c1c(Cl)cccc1Cl` belongs 866 ×10⁻⁶ cm/s.

On to `Cn1cc2c3c(cccc31)CN(C(=O)c1ccc(F)c(Cl)c1)CC2`, for which the Papp is > 1000 ×10⁻⁶ cm/s.

`CC(=O)Nc1ccc(C(=O)Nc2ccc3c(c2)N(C2CCCC2)C(=O)c2ccccc2S3)cc1` gave an apparent permeability coefficient (Papp) of 138 ×10⁻⁶ cm/s. For `Cc1ccc(-c2c(CN3CCN(c4cccc(C(F)(F)F)c4)CC3)csc2C)cc1`, the Papp is < 1 ×10⁻⁶ cm/s. To `COc1cccc(CN2CCCC(c3nc(-c4ccncc4)ncc3-c3ccccc3)C2)c1O` (stereo unspecified) belongs > 1000 ×10⁻⁶ cm/s; to `Oc1ccc(CNc2ccc(F)cc2F)c2cccnc12`, 178 ×10⁻⁶ cm/s; to `CC[C@@](C)(Nc1ccnc(-c2c[nH]c3ncccc23)n1)C(=O)NCC(F)(F)F`, 612 ×10⁻⁶ cm/s. As to `Cc1onc(-c2ccc(F)cc2)c1COc1ccc(C(=O)N2CCS(=O)(=O)CC2)cn1`, the apparent permeability coefficient (Papp) was determined as 258 ×10⁻⁶ cm/s. Against the preceding compound, the Papp is about 2.4-fold lower.

Usually Papp stands for a coefficient for how fast a substance crosses the barrier.
